Here are results for two molecules from paper PMC6797808, “Fucosylated inhibitors of recently identified bangle lectin from Photorhabdus asymbiotica” (Scientific Reports, 2019).

The target in the experiment is PHL (Photorhabdus asymbiotica, UniProt C7BLE4). The experiment can be described thus: SPR competitive inhibition of PHL binding to α-L-fucoside sensor chip. Particulars: for IC50: 25 °C, three independent measurements; for β L-Fuc (affinity improvement factor): IC50,basic unit/(valency × IC50,ligand), basic unit L-Fuc; for PotencyL-Fuc: IC50 L-fucose / IC50 ligand; for β Azide1 (affinity improvement factor): basic unit azide 1. The protocol: To analyse the competitive inhibition of PHL binding to a multivalent surface, the surface plasmon resonance (SPR) technique was employed. A sensor chip presenting α-L-fucopyranoside residues was treated with a constant concentration of PHL, while an increasing concentration of the ligands was used to determine IC50 (Table 2, Fig. 3). […] To assess the contribution of valency to the affinity increase, an affinity improvement factor β was calculated as the relationship IC50,basic unit/(valency × IC50,ligand)[30].
Surface plasmon resonance (SPR) experiments were performed on a BIAcore T200 instrument (GE Healthcare, UK) at 25 °C, using buffer A supplemented with 0.05% Tween 20 as a running buffer. α-L-fucoside was immobilized onto CM5 sensor chip (GE Healthcare, UK) covered with a carboxymethylated dextran matrix. The sensor chip surface was activated with N-ethyl-N-(3-dimethylaminopropyl)carbodiimide/N-hydroxysuccinimide solution and then coated with streptavidin using the manufacturer’s standard protocol using HBS buffer (10 mM HEPES, 150 mM NaCl, 0.05% Tween 20, pH 7. 5). Unreacted groups were blocked with 1 M ethanolamine-HCl, pH 8.5. Biotinylated carbohydrate (biotinilated monomeric probes, Lectinity, Russia) was injected onto particular measuring channel and pure biotin on blank channel at a flow rate of 5 μl/min.
SPR inhibition measurements were carried out on measuring channel with L-fucoside at a flow rate of 5 µl/min. PHL was diluted to a concentration of 20 μg/ml by the buffer A supplemented with 0.05% Tween 20, mixed 1:1 (v/v) with various concentrations of inhibitors (500–5 μM) in the same buffer and injected onto the sensor chip. The response of lectin bound to the sugar surface at equilibrium was plotted against the concentration of inhibitor in order to determine IC50 (concentration of inhibitor resulting in 50% inhibition of binding). As IC50 is not a constant and depends on the experimental set-up, a parameter called potency was used for characterization. The potency of a tested inhibitor is the ratio of IC50 of a chosen standard inhibitor (in this case L-fucose) and the inhibitor in question. Pure PHL lectin was used as a control (0% inhibition) and channel with pure biotin served as a blank. IC50 was determined from triplicates.

The structures appear in SMILES notation.

Sequence of PHL (C7BLE4 entry or part of it): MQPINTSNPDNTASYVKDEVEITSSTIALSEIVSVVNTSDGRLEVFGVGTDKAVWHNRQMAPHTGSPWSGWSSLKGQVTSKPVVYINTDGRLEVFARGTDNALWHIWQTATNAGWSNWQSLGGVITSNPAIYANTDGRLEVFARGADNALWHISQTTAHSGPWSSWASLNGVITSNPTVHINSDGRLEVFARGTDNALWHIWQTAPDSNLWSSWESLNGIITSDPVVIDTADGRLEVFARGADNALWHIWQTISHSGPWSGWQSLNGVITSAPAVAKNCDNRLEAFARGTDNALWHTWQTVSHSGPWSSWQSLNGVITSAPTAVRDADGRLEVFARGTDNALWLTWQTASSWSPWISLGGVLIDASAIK

With `C[C@@H]1O[C@@H](CCN=[N+]=[N-])[C@@H](O)[C@H](O)[C@@H]1O` [Azide 1], the IC50 (as a rule, the concentration at which inhibition is half-maximal) amounted to 11.5 ± 1.4 µM; the “β L-Fuc (affinity improvement factor)” value is 32; the PotencyL-Fuc was found to be 32; the “β Azide1 (affinity improvement factor)” value worked out at 1.

As to `C[C@@H]1O[C@@H](CCn2cc(COCC(COCc3cn(CC[C@@H]4O[C@@H](C)[C@@H](O)[C@@H](O)[C@@H]4O)nn3)(COCc3cn(CC[C@@H]4O[C@@H](C)[C@@H](O)[C@@H](O)[C@@H]4O)nn3)COCc3cn(CC[C@@H]4O[C@@H](C)[C@@H](O)[C@@H](O)[C@@H]4O)nn3)nn2)[C@@H](O)[C@H](O)[C@@H]1O` [Dendrimer 8], the IC50 is 0.188 ± 0.037 µM, the “β L-Fuc (affinity improvement factor)” value came out at 481, the PotencyL-Fuc is given as 1,922 and the “β Azide1 (affinity improvement factor)” value was “approximately 15”. The molecule further returned a PotencyAzide1 (relative to azide 1) of 65.
